Test results published in article PMC7497403, “Development of Potent PfCLK3 Inhibitors Based on TCMDC-135051 as a New Class of Antimalarials” (Journal of Medicinal Chemistry, 2020).
In brackets after ≈: the same amount, converted by molar mass.

Legend:
Aqueous solubility = type: physicochemical; conditions: aqueous medium (not further specified); read-out: Aq. Solubility
AMPK (hum) = AMPK (hum) (Homo sapiens, UniProt Q13131); assay: Kinase screen; type: biochemical
Excerpt: (§1) With verapamil used as a positive control.
(§2) V. Distribution coefficient (LogD7.4)

BRK = BRK (Homo sapiens, UniProt Q13882); assay: Kinase screen; type: biochemical
Excerpt: as §1, §2

BRSK1 = BRSK1 (Homo sapiens, UniProt Q8TDC3); assay: Kinase screen; type: biochemical
Excerpt: as §1, §2

BRSK2 = BRSK2 (Homo sapiens, UniProt Q8IWQ3); assay: Kinase screen; type: biochemical
Excerpt: as §1, §2

CSK = CSK (Homo sapiens, UniProt P41240); assay: Kinase screen; type: biochemical
Sequence of CSK (P41240 whole entry): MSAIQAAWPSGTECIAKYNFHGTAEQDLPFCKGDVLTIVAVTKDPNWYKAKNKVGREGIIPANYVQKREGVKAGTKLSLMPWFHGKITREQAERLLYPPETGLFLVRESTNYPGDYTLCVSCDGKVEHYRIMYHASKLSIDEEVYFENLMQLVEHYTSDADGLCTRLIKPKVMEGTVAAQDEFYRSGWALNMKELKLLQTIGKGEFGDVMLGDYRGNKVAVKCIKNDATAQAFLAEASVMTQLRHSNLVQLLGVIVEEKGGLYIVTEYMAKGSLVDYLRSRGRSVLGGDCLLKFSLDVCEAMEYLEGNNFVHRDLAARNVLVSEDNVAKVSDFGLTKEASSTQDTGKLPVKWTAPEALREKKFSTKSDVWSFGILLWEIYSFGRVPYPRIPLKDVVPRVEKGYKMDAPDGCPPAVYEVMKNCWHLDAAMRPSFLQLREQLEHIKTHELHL
Excerpt: as §1, §2

DAPK1 = DAPK1 (Homo sapiens, UniProt P53355); assay: Kinase screen; type: biochemical
Excerpt: as §1, §2

EIF2AK3 = EIF2AK3 (Homo sapiens, UniProt Q9NZJ5); assay: Kinase screen; type: biochemical
Excerpt: as §1, §2

EPH-B3 = EPH-B3 (Homo sapiens, UniProt P54753); assay: Kinase screen; type: biochemical
Sequence of EPH-B3 (P54753 34-998): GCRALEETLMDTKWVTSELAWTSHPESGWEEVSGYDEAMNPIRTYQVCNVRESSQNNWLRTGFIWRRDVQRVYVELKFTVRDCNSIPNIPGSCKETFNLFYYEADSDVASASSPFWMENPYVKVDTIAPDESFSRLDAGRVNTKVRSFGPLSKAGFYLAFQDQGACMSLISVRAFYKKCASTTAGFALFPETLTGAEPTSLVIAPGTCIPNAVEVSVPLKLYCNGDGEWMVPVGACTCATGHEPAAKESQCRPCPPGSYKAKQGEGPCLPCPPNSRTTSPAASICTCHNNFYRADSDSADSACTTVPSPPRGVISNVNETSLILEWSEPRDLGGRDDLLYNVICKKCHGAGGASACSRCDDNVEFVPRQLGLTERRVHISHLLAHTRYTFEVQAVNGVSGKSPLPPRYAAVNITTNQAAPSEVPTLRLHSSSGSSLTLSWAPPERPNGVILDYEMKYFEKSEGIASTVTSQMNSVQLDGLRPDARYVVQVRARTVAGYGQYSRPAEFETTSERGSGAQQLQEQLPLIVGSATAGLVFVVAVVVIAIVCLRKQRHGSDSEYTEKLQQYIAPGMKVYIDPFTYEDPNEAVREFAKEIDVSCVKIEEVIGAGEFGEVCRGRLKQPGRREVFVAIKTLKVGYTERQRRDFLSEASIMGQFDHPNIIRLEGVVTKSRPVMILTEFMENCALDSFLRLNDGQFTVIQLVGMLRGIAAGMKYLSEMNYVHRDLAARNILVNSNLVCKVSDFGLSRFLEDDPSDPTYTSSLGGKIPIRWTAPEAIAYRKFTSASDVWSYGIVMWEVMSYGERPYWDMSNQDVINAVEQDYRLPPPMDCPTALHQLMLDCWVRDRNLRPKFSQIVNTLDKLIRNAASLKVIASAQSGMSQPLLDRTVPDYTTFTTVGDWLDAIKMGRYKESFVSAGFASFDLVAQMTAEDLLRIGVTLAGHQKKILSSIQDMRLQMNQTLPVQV
Excerpt: as §1, §2

EPH-B4 = EPH-B4 (Homo sapiens, UniProt P54760); assay: Kinase screen; type: biochemical
Excerpt: as §1, §2

HER4 = HER4 (Homo sapiens, UniProt Q15303); assay: Kinase screen; type: biochemical
Excerpt: as §1, §2

IR = IR (Homo sapiens, UniProt P06213); assay: Kinase screen; type: biochemical
Excerpt: as §1, §2

IRAK1 = IRAK1 (Homo sapiens, UniProt P51617); assay: Kinase screen; type: biochemical
Excerpt: as §1, §2

IRR = IRR (Homo sapiens, UniProt P14616); assay: Kinase screen; type: biochemical
Excerpt: as §1, §2

JNK1 = JNK1 (Homo sapiens, UniProt P45983); assay: Kinase screen; type: biochemical
Excerpt: as §1, §2

LKB1 = LKB1 (Homo sapiens, UniProt Q15831); assay: Kinase screen; type: biochemical
Excerpt: as §1, §2

Lck = Lck (Homo sapiens, UniProt P06239); assay: Kinase screen; type: biochemical
Excerpt: as §1, §2

MARK1 = MARK1 (Homo sapiens, UniProt Q9P0L2); assay: Kinase screen; type: biochemical
Excerpt: as §1, §2

MARK4 = MARK4 (Homo sapiens, UniProt Q96L34); assay: Kinase screen; type: biochemical
Excerpt: as §1, §2

MEKK1 = MEKK1 (Homo sapiens, UniProt Q13233); assay: Kinase screen; type: biochemical
Excerpt: as §1, §2

MLK1 = MLK1 (Homo sapiens, UniProt P80192); assay: Kinase screen; type: biochemical
Excerpt: as §1, §2

MNK1 = MNK1 (Homo sapiens, UniProt Q9BUB5); assay: Kinase screen; type: biochemical
Excerpt: as §1, §2

MPSK1 = MPSK1 (Homo sapiens, UniProt O75716); assay: Kinase screen; type: biochemical
Excerpt: as §1, §2

MST2 = MST2 (Homo sapiens, UniProt Q13188); assay: Kinase screen; type: biochemical
Excerpt: as §1, §2

MST3 = MST3 (Homo sapiens, UniProt Q9Y6E0); assay: Kinase screen; type: biochemical
Excerpt: as §1, §2

NEK6 = NEK6 (Homo sapiens, UniProt Q9HC98); assay: Kinase screen; type: biochemical
Sequence of NEK6 (Q9HC98 whole entry): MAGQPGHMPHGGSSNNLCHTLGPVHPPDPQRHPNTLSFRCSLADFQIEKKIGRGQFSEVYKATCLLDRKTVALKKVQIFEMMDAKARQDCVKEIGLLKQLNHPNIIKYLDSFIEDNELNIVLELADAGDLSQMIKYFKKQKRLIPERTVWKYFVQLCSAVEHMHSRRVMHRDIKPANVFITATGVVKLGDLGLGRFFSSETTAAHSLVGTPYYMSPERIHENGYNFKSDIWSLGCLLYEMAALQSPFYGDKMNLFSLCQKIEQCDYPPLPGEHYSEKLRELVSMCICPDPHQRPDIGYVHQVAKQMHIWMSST
Excerpt: as §1, §2

NUAK1 = NUAK1 (Homo sapiens, UniProt O60285); assay: Kinase screen; type: biochemical
Excerpt: as §1, §2

PDGFRA = PDGFRA (Homo sapiens, UniProt P16234); assay: Kinase screen; type: biochemical
Excerpt: as §1, §2

PKCa = PKCa (Homo sapiens, UniProt P17252); assay: Kinase screen; type: biochemical
Excerpt: as §1, §2

ROCK 2 = ROCK 2 (Homo sapiens, UniProt O75116); assay: Kinase screen; type: biochemical
Excerpt: as §1, §2

RSK1 = RSK1 (Homo sapiens, UniProt Q15418); assay: Kinase screen; type: biochemical
Excerpt: as §1, §2

SGK1 = SGK1 (Homo sapiens, UniProt O00141); assay: Kinase screen; type: biochemical
Excerpt: as §1, §2

SIK2 = SIK2 (Homo sapiens, UniProt Q9H0K1); assay: Kinase screen; type: biochemical
Sequence of SIK2 (Q9H0K1 whole entry): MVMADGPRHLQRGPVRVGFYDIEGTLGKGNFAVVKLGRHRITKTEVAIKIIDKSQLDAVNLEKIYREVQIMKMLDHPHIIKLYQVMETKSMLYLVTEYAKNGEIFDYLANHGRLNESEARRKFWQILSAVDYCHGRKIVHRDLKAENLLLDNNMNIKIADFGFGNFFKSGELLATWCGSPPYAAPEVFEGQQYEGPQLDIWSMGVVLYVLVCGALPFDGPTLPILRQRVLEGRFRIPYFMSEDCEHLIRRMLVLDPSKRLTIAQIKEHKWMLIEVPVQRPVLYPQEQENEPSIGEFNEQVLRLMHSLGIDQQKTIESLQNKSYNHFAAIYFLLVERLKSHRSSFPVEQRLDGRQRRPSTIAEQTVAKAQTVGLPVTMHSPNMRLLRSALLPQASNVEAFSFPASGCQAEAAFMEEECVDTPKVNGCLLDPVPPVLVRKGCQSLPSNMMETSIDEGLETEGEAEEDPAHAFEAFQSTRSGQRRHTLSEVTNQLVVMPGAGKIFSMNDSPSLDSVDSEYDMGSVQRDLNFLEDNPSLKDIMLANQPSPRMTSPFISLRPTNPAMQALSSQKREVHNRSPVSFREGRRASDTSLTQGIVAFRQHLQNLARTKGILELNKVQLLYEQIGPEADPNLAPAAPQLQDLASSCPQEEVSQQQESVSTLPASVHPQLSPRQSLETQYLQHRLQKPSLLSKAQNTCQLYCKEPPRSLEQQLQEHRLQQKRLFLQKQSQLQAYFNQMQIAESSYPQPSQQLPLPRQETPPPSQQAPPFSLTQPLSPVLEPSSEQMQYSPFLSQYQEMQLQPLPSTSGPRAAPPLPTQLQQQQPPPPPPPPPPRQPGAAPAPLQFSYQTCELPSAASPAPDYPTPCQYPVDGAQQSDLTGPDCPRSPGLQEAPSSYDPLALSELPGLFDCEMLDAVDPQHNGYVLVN
Excerpt: as §1, §2

STK33 = STK33 (Homo sapiens, UniProt Q9BYT3); assay: Kinase screen; type: biochemical
Sequence of STK33 (Q9BYT3 whole entry): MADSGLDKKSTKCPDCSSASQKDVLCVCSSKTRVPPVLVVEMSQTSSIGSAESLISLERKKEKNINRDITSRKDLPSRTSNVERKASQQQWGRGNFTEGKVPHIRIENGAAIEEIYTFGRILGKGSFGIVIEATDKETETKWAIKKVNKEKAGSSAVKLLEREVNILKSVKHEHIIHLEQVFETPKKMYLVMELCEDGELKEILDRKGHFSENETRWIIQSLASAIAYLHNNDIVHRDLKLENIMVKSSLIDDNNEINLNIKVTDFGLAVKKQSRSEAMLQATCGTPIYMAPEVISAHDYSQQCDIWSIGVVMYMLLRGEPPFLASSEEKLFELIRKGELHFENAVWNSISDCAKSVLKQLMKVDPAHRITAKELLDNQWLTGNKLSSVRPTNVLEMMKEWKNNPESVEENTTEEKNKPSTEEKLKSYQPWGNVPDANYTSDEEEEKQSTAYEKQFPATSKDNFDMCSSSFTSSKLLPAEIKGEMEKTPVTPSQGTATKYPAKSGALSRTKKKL
Excerpt: as §1, §2

SmMLCK = SmMLCK (Homo sapiens, UniProt Q15746); assay: Kinase screen; type: biochemical
Excerpt: as §1, §2

TAO1 = TAO1 (Homo sapiens, UniProt Q7L7X3); assay: Kinase screen; type: biochemical
Excerpt: as §1, §2

TESK1 = TESK1 (Homo sapiens, UniProt Q15569); assay: Kinase screen; type: biochemical
Excerpt: as §1, §2

TIE2 = TIE2 (Homo sapiens, UniProt Q02763); assay: Kinase screen; type: biochemical
Sequence of TIE2 (Q02763 23-1124): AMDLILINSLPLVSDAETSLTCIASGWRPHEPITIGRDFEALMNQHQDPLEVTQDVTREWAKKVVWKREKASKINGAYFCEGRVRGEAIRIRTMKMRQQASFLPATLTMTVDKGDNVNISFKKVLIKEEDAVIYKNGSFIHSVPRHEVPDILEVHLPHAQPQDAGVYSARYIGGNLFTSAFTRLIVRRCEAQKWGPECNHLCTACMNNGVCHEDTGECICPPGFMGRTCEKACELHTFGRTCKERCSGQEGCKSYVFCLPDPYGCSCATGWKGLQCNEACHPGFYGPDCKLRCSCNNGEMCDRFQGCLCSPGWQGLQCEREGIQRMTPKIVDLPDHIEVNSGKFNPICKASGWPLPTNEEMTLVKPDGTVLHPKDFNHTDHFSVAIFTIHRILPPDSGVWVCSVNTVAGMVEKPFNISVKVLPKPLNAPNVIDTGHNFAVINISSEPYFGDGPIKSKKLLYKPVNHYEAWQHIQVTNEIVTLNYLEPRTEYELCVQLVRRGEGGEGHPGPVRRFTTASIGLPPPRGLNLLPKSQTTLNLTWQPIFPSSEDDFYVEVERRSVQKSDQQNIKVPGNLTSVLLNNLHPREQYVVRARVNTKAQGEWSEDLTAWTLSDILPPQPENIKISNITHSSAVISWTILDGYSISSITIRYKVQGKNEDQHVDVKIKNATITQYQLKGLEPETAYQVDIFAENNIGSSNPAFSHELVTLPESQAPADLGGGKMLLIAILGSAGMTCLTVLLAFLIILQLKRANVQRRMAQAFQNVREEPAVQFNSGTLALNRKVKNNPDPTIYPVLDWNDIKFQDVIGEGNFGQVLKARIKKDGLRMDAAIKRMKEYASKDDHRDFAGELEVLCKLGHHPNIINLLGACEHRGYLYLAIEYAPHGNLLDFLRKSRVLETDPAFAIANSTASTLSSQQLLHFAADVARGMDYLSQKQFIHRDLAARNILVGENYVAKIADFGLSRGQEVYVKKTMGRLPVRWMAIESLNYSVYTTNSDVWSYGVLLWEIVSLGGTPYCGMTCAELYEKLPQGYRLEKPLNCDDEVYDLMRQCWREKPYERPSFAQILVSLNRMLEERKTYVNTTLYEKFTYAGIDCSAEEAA
Excerpt: as §1, §2

TTBK2 = TTBK2 (Homo sapiens, UniProt Q6IQ55); assay: Kinase screen; type: biochemical
Excerpt: as §1, §2

ULK1 = ULK1 (Homo sapiens, UniProt O75385); assay: Kinase screen; type: biochemical
Excerpt: as §1, §2

WNK1 = WNK1 (Homo sapiens, UniProt Q9H4A3); assay: Kinase screen; type: biochemical
Excerpt: as §1, §2

p38a MAPK = p38a MAPK (Homo sapiens, UniProt Q16539); assay: Kinase screen; type: biochemical
Excerpt: as §1, §2

p38b MAPK = p38b MAPK (Homo sapiens, UniProt Q15759); assay: Kinase screen; type: biochemical
Excerpt: as §1, §2

p38d MAPK = p38d MAPK (Homo sapiens, UniProt O15264); assay: Kinase screen; type: biochemical
Excerpt: as §1, §2

p38g MAPK = p38g MAPK (Homo sapiens, UniProt P53778); assay: Kinase screen; type: biochemical
Excerpt: as §1, §2

PINK = conditions: 1 μM

`CCN(CC)Cc1ccc(OC)c(-c2cc3c(-c4ccc(C(=O)O)c(C(C)C)c4)ccnc3[nH]2)c1` [analogue 1, 4-(2-(5-((Diethylamino)methyl)-2-methoxyphenyl)-1H-pyrrolo[2,3-b]pyridin-4-yl)-2-isopropylbenzoic Acid] gave a solubility (Aqueous solubility) of 8 µg/mL (≈ 17 µM), an activity at 1 µM (AMPK (hum)) of 30% and an activity at 1 µM (BRK) of 33%. It also gave an activity at 1 µM (BRSK1) of 66%, an activity at 1 µM (BRSK2) of 74% and an activity at 1 µM (CSK) of 74%. It also gave an activity at 1 µM (DAPK1) of 105%, an activity at 1 µM (EIF2AK3) of 100% and an activity at 1 µM (EPH-B3) of 108%. It also gave an activity at 1 µM (EPH-B4) of 82%, an activity at 1 µM (HER4) of 112% and an activity at 1 µM (IR) of 77%. The activity at 1 µM (IRAK1) was 6%, the activity at 1 µM (IRR) was 101% and the activity at 1 µM (JNK1) was 85%. For the same compound, the activity at 1 µM (LKB1) was 115%, the activity at 1 µM (Lck) was 39% and the activity at 1 µM (MARK1) was 52%. It also gave an activity at 1 µM (MARK4) of 59%, an activity at 1 µM (MEKK1) of 112% and an activity at 1 µM (MLK1) of 111%. For the same compound, the activity at 1 µM (MNK1) was 0%, the activity at 1 µM (MPSK1) was 104% and the activity at 1 µM (MST2) was 68%. For the same compound, the activity at 1 µM (MST3) was 62%, the activity at 1 µM (NEK6) was 96% and the activity at 1 µM (NUAK1) was 18%. For the same compound, the activity at 1 µM (PDGFRA) was 133%, the activity at 1 µM (PKCa) was 64% and the activity at 1 µM (ROCK 2) was 92%. For the same compound, the activity at 1 µM (RSK1) was 106%, the activity at 1 µM (SGK1) was 38% and the activity at 1 µM (SIK2) was 41%. The activity at 1 µM (STK33) was 44%, the activity at 1 µM (SmMLCK) was 80% and the activity at 1 µM (TAO1) was 39%. For the same compound, the activity at 1 µM (TESK1) was 78%, the activity at 1 µM (TIE2) was 120% and the activity at 1 µM (TTBK2) was 114%. The activity at 1 µM (ULK1) was 80%, the activity at 1 µM (WNK1) was 105% and the activity at 1 µM (p38a MAPK) was 89%. The activity at 1 µM (p38b MAPK) was 112%, the activity at 1 µM (p38d MAPK) was 117% and the activity at 1 µM (p38g MAPK) was 105%. For the same compound, the “% Activity” value (PINK) was 106%.
